Source: PubChem BioAssay AID1918994 (Molecular Pharmacology Branch, DTP, NCI, 2023)

Tested on: 292921-168-R-J2-PDC complex spheroid growth
Experiment: Anticancer human tumor 292921-168-R-J2-PDC patient-derived pancreatic carcinoma cell line growth inhibition [AhR]
Settings: for IC50: curve of first compound; for viability, T/C: stronger effect = lower value
From the text: Multicellular complex tumor spheroid response to aryl hydrocarbon receptor antagonists in combination with a variety of drugs and investigational agents in selected tumor cell lines
The current study was undertaken to assess response to aryl hydrocarbon receptor antagonists in combination with standard-of-care drugs and investigational agents in solid tumor complex spheroid models. Complex spheroids include a stromal component modeled by human endothelial cells (HUVEC) and fibroblasts modeled by human mesenchymal stem cells (MSCs). The concentration ranges selected for each drug and investigational agent were based upon clinically achievable concentrations if the clinical Cmax of the agent was known.
Compounds. The drugs and investigational agents: BAY 2416964 (NSC825713), GNF351 (NSC835774), CH-223191 (NSC835775), CPI-455 (NSC825282), aza-TdCyd (NSC777586), decitabine (NSC127716), belinostat (NSC758774), entinostat (NSC756642), pevonedistat (NSC761192), tazemetostat (NSC777109), talazoparib (NSC765396), olaparib (NSC753686), selinexor (NSC780203), nedisertib (M3814, NSC802822), bortezomib (NSC756655), venetoclax (NSC766270), doxorubicin (NSC123127), elimusertib (BAY189344, NSC800525), ceralasertib (AZD6738, NSC777638), TAK-243 (NSC785004), alisertib (NSC759677), etoposide (NSC141540), topotecan (NSC609699), eribulin (NSC707389), gemcitabine (NSC613327), carboplatin (NSC241240), cisplatin (NSC119875), and SN-38 (NSC673596) were obtained from the National Cancer Institute (NCI) Developmental Therapeutics Program Chemical Repository (32). The FDA-approved anticancer drug set is available from the Developmental Therapeutics Program at https://dtp.cancer.gov/organization/dscb/obtaining/available plates.htm. […] The stock solutions were prepared in dimethyl sulfoxide (DMSO, Sigma-Aldrich, St. Louis, MO, cat. D2650), except for the platinum compounds which were prepared in saline (Quality Biological, Gaithersburg, MD, cat. 114-055-101), at 800-fold the tested concentration and stored at -70 degrees C prior to their use. All drugs and investigational agents were tested over a range starting from a high concentration at or near the clinical Cmax and decreasing in half-log increments. If the clinical Cmax for an agent had not been determined, the highest concentration tested was 10 microM (Table 1).
Cell Culture. All cells were maintained in an incubator at 37 degrees C and 5% CO2 with 95% humidity. The PDC lines were cultured according to standard operating procedures established by the NCI PDMR (https://pdmr.cancer.gov). Briefly, all PDCs were thawed and cultured in Matrigel-coated flasks prepared with a working solution of 1X Ham's F-12 nutrient mix, without supplementation (Invitrogen, Waltham, MA, cat. 11765054), 100 U/mL penicillin-streptomycin (Invitrogen, cat. 15140122), and 2.5% Matrigel (Corning Inc., Corning, NY, cat. 354248) for the first three passages. All PDCs were cultured in complete DMEM/F-12 media containing advanced DMEM/F-12 (Invitrogen, cat. 12634028), 4.9% defined fetal bovine serum, heat inactivated (HyClone Laboratories Inc., Logan, UT, cat. SH30070.03HI), 389 ng/mL hydrocortisone (Sigma-Aldrich, cat. H4001), 9.7 ng/mL human EGF recombinant protein (Invitrogen, cat. PHG0313), 23.4 microg/mL adenine (Sigma-Aldrich, cat. A2786), 97.3 U/mL penicillin-streptomycin (Invitrogen, cat. 15140122), 1.9 mM L-glutamine (Invitrogen, cat. 25030081), and 9.7 microM Y-27632 dihydrochloride (Tocris Bioscience, Bristol, United Kingdom, cat. 1254). The PDCs were cultured in complete DMEM/F12 media without 10 microM Y-27632 dihydrochloride for at least two passages prior to the screen. The established cell lines NCI-H1341 and […] were cultured in DMEM/F-12, HEPES (Invitrogen, cat. 11330032), 5% defined fetal bovine serum (HyClone Laboratories Inc., cat. SH30070.03), ITS premix universal culture supplement [insulin (5 microg/mL), transferrin (5 microg/mL), and selenious acid (5 ng/mL)] […]
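Also: spheroids exposed to compounds for seven days after three days of growth.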

Q: `Cn1ncnc1C1c2n[nH]c(=O)c3cc(F)cc(c23)NC1c1ccc(F)cc1` (stereo not given) + Cc1ccccc1N=Nc1ccc(NC(=O)c2ccnn2C)c(C)c1 was tested. Which IC50 (second compound 0.1 µM) did it give?
A: Its IC50 is over 100 nM.

Q: What about the IC50 (second compound 0.316 µM) of the same compound?
A: Its IC50 is over 100 nM.

Q: What about the IC50 (second compound 1 µM) of the same compound?
A: The IC50 was over 100 nM.

Q: What about the IC50 (second compound 3.16 µM) of the same compound?
A: Its IC50 is over 100 nM.

Q: And the IC50 (second compound 10 µM)?
A: Its IC50 is over 100 nM.

Q: And the viability, T/C (second compound 0.1 µM, first compound 0.000316 µM)?
A: Its viability, T/C is 96.1%.

Q: What about the viability, T/C (second compound 0.1 µM, first compound 0.001 µM) of the same compound?
A: The viability, T/C was 83%.

Q: What about the viability, T/C (second compound 0.1 µM, first compound 0.00316 µM) of the same compound?
A: Its viability, T/C is 83.2%.

Q: What about the viability, T/C (second compound 0.1 µM, first compound 0.01 µM) of the same compound?
A: Its viability, T/C is 85.7%.

Q: What about the viability, T/C (second compound 0.1 µM, first compound 0.0316 µM) of the same compound?
A: The viability, T/C was 87.8%.

Q: What about the viability, T/C (second compound 0.1 µM, first compound 0.1 µM) of the same compound?
A: Its viability, T/C is 82.6%.

Q: And the viability, T/C (second compound 0.316 µM, first compound 0.000316 µM)?
A: The viability, T/C was 90.9%.

Q: What about the viability, T/C (second compound 0.316 µM, first compound 0.001 µM) of the same compound?
A: Its viability, T/C is 76.6%.

Q: What about the viability, T/C (second compound 0.316 µM, first compound 0.00316 µM) of the same compound?
A: The viability, T/C was 86.4%.

Q: What about the viability, T/C (second compound 0.316 µM, first compound 0.01 µM) of the same compound?
A: Its viability, T/C is 74.8%.

Q: What about the viability, T/C (second compound 0.316 µM, first compound 0.0316 µM) of the same compound?
A: Its viability, T/C is 73.8%.

Q: What about the viability, T/C (second compound 0.316 µM, first compound 0.1 µM) of the same compound?
A: Its viability, T/C is 86.2%.

Q: What about the viability, T/C (second compound 1 µM, first compound 0.000316 µM) of the same compound?
A: Its viability, T/C is 78.6%.

Q: And the viability, T/C (second compound 1 µM, first compound 0.001 µM)?
A: The viability, T/C was 81%.

Q: And the viability, T/C (second compound 1 µM, first compound 0.00316 µM)?
A: Its viability, T/C is 80.3%.

Q: What about the viability, T/C (second compound 1 µM, first compound 0.01 µM) of the same compound?
A: Its viability, T/C is 81.3%.

Q: And the viability, T/C (second compound 1 µM, first compound 0.0316 µM)?
A: The viability, T/C was 87.8%.

Q: And the viability, T/C (second compound 1 µM, first compound 0.1 µM)?
A: The viability, T/C was 74.1%.

Q: What about the viability, T/C (second compound 3.16 µM, first compound 0.000316 µM) of the same compound?
A: Its viability, T/C is 80.9%.

Q: What about the viability, T/C (second compound 3.16 µM, first compound 0.001 µM) of the same compound?
A: The viability, T/C was 76.2%.

Q: What about the viability, T/C (second compound 3.16 µM, first compound 0.00316 µM) of the same compound?
A: Its viability, T/C is 76.3%.

Q: And the viability, T/C (second compound 3.16 µM, first compound 0.01 µM)?
A: The viability, T/C was 75.1%.

Q: What about the viability, T/C (second compound 3.16 µM, first compound 0.0316 µM) of the same compound?
A: Its viability, T/C is 72.5%.

Q: And the viability, T/C (second compound 3.16 µM, first compound 0.1 µM)?
A: The viability, T/C was 59.6%.

Q: And the viability, T/C (second compound 10 µM, first compound 0.000316 µM)?
A: Its viability, T/C is 64%.

Q: What about the viability, T/C (second compound 10 µM, first compound 0.001 µM) of the same compound?
A: The viability, T/C was 68.5%.

Q: What about the viability, T/C (second compound 10 µM, first compound 0.00316 µM) of the same compound?
A: The viability, T/C was 51.8%.

Q: What about the viability, T/C (second compound 10 µM, first compound 0.01 µM) of the same compound?
A: The viability, T/C was 61.7%.

Q: And the viability, T/C (second compound 10 µM, first compound 0.0316 µM)?
A: The viability, T/C was 53.3%.

Q: What about the viability, T/C (second compound 10 µM, first compound 0.1 µM) of the same compound?
A: Its viability, T/C is 52.8%.

Q: Which results are given for `CCc1c2c(nc3ccc(O)cc13)-c1cc3c(c(=O)n1C2)COC(=O)[C@]3(O)CC` + Cc1cncc(-c2nc(NCCc3c[nH]c4ccccc34)c3ncn(C(C)C)c3n2)c1?
A: IC50 (second compound 0.1 µM): 2.91 nM; IC50 (second compound 0.316 µM): 2.89 nM; IC50 (second compound 1 µM): 1.92 nM; IC50 (second compound 3.16 µM): < 0.949 nM; IC50 (second compound 10 µM): < 0.949 nM; viability, T/C (second compound 0.1 µM, first compound 0.000949 µM): 62.5%; viability, T/C (second compound 0.1 µM, first compound 0.003 µM): 50.5%; viability, T/C (second compound 0.1 µM, first compound 0.00949 µM): 22.7%; viability, T/C (second compound 0.1 µM, first compound 0.03 µM): 11.1%; viability, T/C (second compound 0.1 µM, first compound 0.0949 µM): 5.94%; viability, T/C (second compound 0.1 µM, first compound 0.3 µM): 3.28%; viability, T/C (second compound 0.316 µM, first compound 0.000949 µM): 64.3%; viability, T/C (second compound 0.316 µM, first compound 0.003 µM): 50.4%; viability, T/C (second compound 0.316 µM, first compound 0.00949 µM): 23.2%; viability, T/C (second compound 0.316 µM, first compound 0.03 µM): 11.7%; viability, T/C (second compound 0.316 µM, first compound 0.0949 µM): 5.74%; viability, T/C (second compound 0.316 µM, first compound 0.3 µM): 3.22%; viability, T/C (second compound 1 µM, first compound 0.000949 µM): 57.6%; viability, T/C (second compound 1 µM, first compound 0.003 µM): 45.8%; viability, T/C (second compound 1 µM, first compound 0.00949 µM): 22.5%; viability, T/C (second compound 1 µM, first compound 0.03 µM): 11.6%; viability, T/C (second compound 1 µM, first compound 0.0949 µM): 6.94%; viability, T/C (second compound 1 µM, first compound 0.3 µM): 4.02%; viability, T/C (second compound 3.16 µM, first compound 0.000949 µM): 44.6%; viability, T/C (second compound 3.16 µM, first compound 0.003 µM): 35.2%; viability, T/C (second compound 3.16 µM, first compound 0.00949 µM): 19.6%; viability, T/C (second compound 3.16 µM, first compound 0.03 µM): 11.1%; viability, T/C (second compound 3.16 µM, first compound 0.0949 µM): 6.69%; viability, T/C (second compound 3.16 µM, first compound 0.3 µM): 3.97%; viability, T/C (second compound 10 µM, first compound 0.000949 µM): 36.7%; viability, T/C (second compound 10 µM, first compound 0.003 µM): 28.9%; viability, T/C (second compound 10 µM, first compound 0.00949 µM): 21.7%; viability, T/C (second compound 10 µM, first compound 0.03 µM): 14.2%; viability, T/C (second compound 10 µM, first compound 0.0949 µM): 9.49%; viability, T/C (second compound 10 µM, first compound 0.3 µM): 6.16%
